Measurements published in US20110152090A1, “HERBICIDAL COMPOSITIONS COMPRISING FLUFENACET” (Bayer CropScience AG, priority 2009, published 2011).

What was measured:
Assay type in all cases: in vivo
[1] = test system: POAAN (Poa annua); experiment: Greenhouse trial: PE soil application vs incorporation into the soil (test methods 1, 3); conditions: g of AS/ha: (A) 90, (B) 1200, (C) 90, (D) 300
Experimental: (§1) In the standard design of the test, seeds of various broad-leaved weed and weed grass biotypes (origins) were sown in a 8-13 cm diameter pot filled with natural soil of a standard field soil (loamy silt; non-sterile) and covered with a covering soil layer of about 1 cm. The pots were then cultivated in a greenhouse (12-16 h of light, temperature day 20-22° C., night 15-18° C.) until the time of application. The pots were treated on a laboratory track sprayer with spray liquors comprising the compositions according to the invention, mixtures of the prior art or components used individually. Application of the active compounds or active compound combinations formulated as WG, WP, EC or otherwise was carried out at the appropriate growth stages of the plants. The application rate for the spray application was 100-600 l of water/ha. After the treatment, the plants were returned to the greenhouses.
(§2) About 3 weeks after the application, the soil action or/and foliar action was assessed visually according to a scale of 0-100% in comparison to an untreated comparative group: 0%=no noticeable effect compared to the untreated comparative group; 100%=full effect compared to the untreated comparative group.
(§3) (notes: the term “seeds” also includes vegetative propagation forms such as, for example, rhizome pieces; abbreviations used: h light=hours of illumination, g of AS/ha=gram of active substance per hectare, l/ha=liter per hectare, S=sensitive, R=resistant) • 1. Pre-emergence action against weeds: seeds of various broad-leaved weed and weed grass biotypes (origins) were sown in a 8-13 cm diameter pot filled with natural soil of a standard field soil (loamy silt; non-sterile) and covered with a covering soil layer of about 1 cm. The pots were then cultivated in a greenhouse (12-16 h of light, temperature day 20-22° C., night 15-18° C.) until the time of application. The pots were treated at the BBCH stage 00-10 of the seeds/plants on a laboratory track sprayer with spray liquors comprising the compositions according to the invention, mixtures or components used individually, as WG, WP, EC or other formulations. The application rate for the spray application was 100-600 l of water/ha. After the treatment, the plants were returned to the greenhouses and, when required, treated with fertilizer and watered. • 2. Post-emergence action against weeds: seeds of various broad-leaved weed and weed grass biotypes (origins) were sown in a 8-13 cm diameter pot filled with natural soil of a standard field soil (loamy silt; non-sterile) and covered with a covering soil layer of about 1 cm. The pots were then cultivated in a greenhouse (12-16 h of light, temperature day 20-22° C., night 15-18° C.) until the time of application. The pots were treated at various BBCH stages between 11-25 of the seeds/plants, i.e. generally between two to three weeks after the start of the cultivation, on a laboratory track sprayer with spray liquors comprising the compositions according to the invention, mixtures or components used individually, as WG, WP, EC or other formulations. The application rate for the spray application was 100-600 l of water/ha. After the treatment, the plants were returned to the greenhouses and, when required, treated with fertilizer and watered. • 3. Pre-emergence action against weeds with and without incorporation of active compound: seeds of various broad-leaved weed and weed grass biotypes (origins) were sown in a 8-13 cm diameter pot filled with natural soil of a standard field soil (loamy silt; non-sterile). […]

[2] = test system: STEME (Stellaria media); experiment: as above; conditions: g of AS/ha: (A) 90, (B) 1200, (C) 90, (D) 300
Experimental: as §1, §2, §3

[3] = test system: APESV (Apera Spica-venti); experiment: Greenhouse trial: PO application (test method 2); conditions: g of AS/ha: (A) 120, (B) 1600, (C) 120
Experimental: as §1, §2, §3

[4] = test system: POAAN (Poa annua); experiment: Greenhouse trial: PO application (test method 2); conditions: g of AS/ha: (A) 120, (B) 1600, (C) 120
Experimental: as §1, §2, §3

[5] = test system: STEME (Stellaria media); experiment: Greenhouse trial: PO application (test method 2); conditions: g of AS/ha: (A) 120, (B) 1600, (C) 120
Experimental: as §1, §2, §3

[6] = test system: HORVS (Hordeum vulgare, summer barley); experiment: Greenhouse trial: selective PO action (test method 5); conditions: Hordeum vulgare (summer barley), in vivo, po
Experimental: as §1, §2
(§4) (notes: the term “seeds” also includes vegetative propagation forms such as, for example, rhizome pieces; abbreviations used: h light=hours of illumination, g of AS/ha=gram of active substance per hectare, l/ha=liter per hectare, S=sensitive, R=resistant) • 1. Pre-emergence action against weeds: seeds of various broad-leaved weed and weed grass biotypes (origins) were sown in a 8-13 cm diameter pot filled with natural soil of a standard field soil (loamy silt; non-sterile) and covered with a covering soil layer of about 1 cm. The pots were then cultivated in a greenhouse (12-16 h of light, temperature day 20-22° C., night 15-18° C.) until the time of application. […]

[7] = test system: AVEFA (Avena fatua); experiment: Greenhouse trial: pre-sowing application vs PE application (test method 6)
Experimental: as §1, §2, §3

[8] = test system: LOLPE (Lolium perenne); experiment: as above
Experimental: as §1, §2, §3

[9] = test system: HORVS (Hordeum vulgare, summer barley); experiment: Greenhouse trial: pre-sowing application vs PE application (test method 6), crop, PE part; conditions: Hordeum vulgare (summer barley), in vivo
Experimental: as §1, §2, §4

[10] = test system: TRZAS (Triticum aestivum, summer wheat); experiment: Greenhouse trial: pre-sowing application vs PE application (test method 6), crop, pre-sowing part; conditions: Triticum aestivum (summer wheat), in vivo
Experimental: as §1, §2, §4

[11] = test system: AVEFA (Avena fatua); experiment: Greenhouse trial: different irrigation systems (test method 7); conditions: g of AS/ha: (A) 120, (B) 1200, (C) 90
Experimental: as §1, §2, §3

[12] = test system: LOLPE (Lolium perenne); experiment: as above; conditions: g of AS/ha: (A) 120, (B) 1200, (C) 90
Experimental: as §1, §2, §3

[13] = test system: MATCH (Matricaria chamomilla); experiment: as above; conditions: g of AS/ha: (A) 120, (B) 1200, (C) 90
Experimental: as §1, §2, §3

[14] = test system: LOLPE (Lolium perenne); experiment: Greenhouse trial: different soil types (test method 8); conditions: g of AS/ha: (A) 120, (B) 1200, (C) 90
Experimental: as §1, §2, §3

[15] = test system: MATCH (Matricaria chamomilla); experiment: as above; conditions: g of AS/ha: (A) 120, (B) 1200, (C) 90; for Difference of the soil types, MATCH: IU/EC73 soil vs IU soil
Experimental: as §1, §2, §3

[16] = test system: HORVS (Hordeum vulgare, summer barley); experiment: Greenhouse trial: different soil types (test method 8), crop; conditions: Hordeum vulgare (summer barley), in vivo
Experimental: as §1, §2, §3

[17] = test system: LOLSS (Lolium species), sensitive and resistant; experiment: Greenhouse trial: resistant biotypes, PE application (test method 9); conditions: g of AS/ha: (A) 90, (B) 1200, (C) 90, iodosulfuron 10; for activity LOLSS resistant (visual scale 0-100%): resistant biotype; for activity LOLSS sensitive (visual scale 0-100%): sensitive biotype
Experimental: as §1, §2, §3

[18] = test system: MATCH (Matricaria chamomilla), sensitive and resistant; experiment: as above; conditions: g of AS/ha: (A) 90, (B) 1200, (C) 90, iodosulfuron 10; for activity MATCH resistant (visual scale 0-100%): resistant biotype; for activity MATCH sensitive (visual scale 0-100%): sensitive biotype
Experimental: as §1, §2, §3

[19] = test system: STEME (Stellaria media), sensitive and resistant; experiment: as above; conditions: g of AS/ha: (A) 90, (B) 1200, (C) 90, iodosulfuron 10; for activity STEME resistant (visual scale 0-100%): resistant biotype; for activity STEME sensitive (visual scale 0-100%): sensitive biotype
Experimental: as §1, §2, §3

[20] = test system: APESV (Apera Spica-venti); experiment: Greenhouse trial: different sowing depths, PE application (test method 10); conditions: g of AS/ha: (A) 90, (B) 1200, (C) 90; for activity APESV 5 mm (visual scale 0-100%): sowing depth 5 mm; for activity APESV 20 mm (visual scale 0-100%): sowing depth 20 mm
Experimental: as §1, §2, §3

[21] = test system: MATCH (Matricaria chamomilla); experiment: as above; conditions: g of AS/ha: (A) 90, (B) 1200, (C) 90; for activity MATCH 5 mm (visual scale 0-100%): sowing depth 5 mm; for activity MATCH 20 mm (visual scale 0-100%): sowing depth 20 mm
Experimental: as §1, §2, §3

[22] = PE application, g of AS/ha: (A) 90, (B) 1200, (C) 90
[23] = application 7 days prior to sowing, g AS/ha: (A) 90, (B) 1200, (C) 90

SMILES	activity POAAN (visual scale 0-100%) ([1]; PE application) [%]	activity STEME (visual scale 0-100%) ([2]; PE application) [%]	activity STEME (visual scale 0-100%) ([2]; incorporation into the soil) [%]	activity APESV (visual scale 0-100%) [3] [%]	activity POAAN (visual scale 0-100%) [4] [%]	activity STEME (visual scale 0-100%) [5] [%]	activity on crop HORVS (visual scale 0-100%) [6] [%]	activity AVEFA (visual scale 0-100%) [7, 22] [%]	activity AVEFA (visual scale 0-100%) [7, 23] [%]	activity LOLPE (visual scale 0-100%) [8, 22] [%]	activity LOLPE (visual scale 0-100%) [8, 23] [%]	activity on crop HORVS (visual scale 0-100%) [9] [%]	activity on crop TRZAS (visual scale 0-100%) [10] [%]	activity AVEFA (visual scale 0-100%) ([11]; irrigation from above) [%]	activity LOLSS resistant (visual scale 0-100%) [17] [%]	activity LOLSS sensitive (visual scale 0-100%) [17] [%]	activity MATCH resistant (visual scale 0-100%) [18] [%]	activity MATCH sensitive (visual scale 0-100%) [18] [%]	activity STEME resistant (visual scale 0-100%) [19] [%]	activity STEME sensitive (visual scale 0-100%) [19] [%]	also measured
CC(C)N(C(=O)COc1nnc(C(F)(F)F)s1)c1ccc(F)cc1 [(A) flufenacet, N-(4-fluorophenyl)-N-(1-methylethyl)-2-[[5-(trifluoromethyl)-1,3,4-thiadiazol-2-yl]oxy]acetamide]	70	0	20	60	60	30	40	63	70	75	80	80	40	85	10	85	30	30	0	0	activity POAAN (visual scale 0-100%) ([1]; incorporation into the soil): 100%; activity AVEFA (visual scale 0-100%) ([11]; irrigation from below): 50%; activity LOLPE (visual scale 0-100%) ([12]; irrigation from above): 80%; activity LOLPE (visual scale 0-100%) ([12]; irrigation from below): 78%; activity MATCH (visual scale 0-100%) ([13]; irrigation from above): 49%; activity MATCH (visual scale 0-100%) ([13]; irrigation from below): 35%; activity LOLPE IU soil (visual scale 0-100%) [14]: 97%; activity LOLPE IU/EC73 soil (visual scale 0-100%) [14]: 75%; activity MATCH IU soil (visual scale 0-100%) [15]: 80%; Difference of the soil types, MATCH [15]: −75%; activity MATCH IU/EC73 soil (visual scale 0-100%) [15]: 5%; Difference Δ^D of the soil types, HORVS [16]: Δ^D − 10%; activity on crop HORVS IU soil (visual scale 0-100%) [16]: 10%; activity on crop HORVS IU/EC73 soil (visual scale 0-100%) [16]: 0%; activity APESV 5 mm (visual scale 0-100%) [20]: 65%; activity APESV 20 mm (visual scale 0-100%) [20]: 70%; activity MATCH 5 mm (visual scale 0-100%) [21]: 30%; activity MATCH 20 mm (visual scale 0-100%) [21]: 30%
CCCN(CCC)C(=O)SCc1ccccc1 [(B) prosulfocarb, S-(phenylmethyl) dipropylcarbamothioate]	35	30	65	20	30	30	30	10	10	5	0	15	20	5	65	85	25	0	40	70	activity AVEFA (visual scale 0-100%) ([11]; irrigation from below): 10%; activity LOLPE (visual scale 0-100%) ([12]; irrigation from above): 10%; activity LOLPE (visual scale 0-100%) ([12]; irrigation from below): 5%; activity MATCH (visual scale 0-100%) ([13]; irrigation from above): 0%; activity MATCH (visual scale 0-100%) ([13]; irrigation from below): 0%; activity LOLPE IU soil (visual scale 0-100%) [14]: 33%; activity LOLPE IU/EC73 soil (visual scale 0-100%) [14]: 0%; activity MATCH IU soil (visual scale 0-100%) [15]: 10%; Difference of the soil types, MATCH [15]: −10%; activity MATCH IU/EC73 soil (visual scale 0-100%) [15]: 0%; Difference Δ^D of the soil types, HORVS [16]: Δ^D + 3%; activity on crop HORVS IU soil (visual scale 0-100%) [16]: 0%; activity on crop HORVS IU/EC73 soil (visual scale 0-100%) [16]: 3%; activity APESV 5 mm (visual scale 0-100%) [20]: 50%; activity APESV 20 mm (visual scale 0-100%) [20]: 20%; activity MATCH 5 mm (visual scale 0-100%) [21]: 0%; activity MATCH 20 mm (visual scale 0-100%) [21]: 0%
COc1nc(C)nc(NC(=O)NS(=O)(=O)c2cc(I)ccc2C(=O)O)n1 [iodosulfuron]	–	–	–	–	–	–	–	–	–	–	–	–	–	–	50	98	60	100	40	90	–
